Patent US11279735B2, “Cyclic peptide antibiotics” (priority 2017, dated 2022)
In brackets after ≈: the same amount, converted by molar mass. *1 amine or outer side, *2 acyl side, *3 side chain or, on linkers, in order; H or OH if unused. Where a SMILES comes first, the peptide text is derived from it. [ ]: non-standard residue; d: D form. The star is where a group is joined. X19 = CCCC[C@@H](OC[C@@H](C)N[*:1])[C@@H](CC1CC1)C(=O)[*:2]; X6 = CCCCCC[C@@H](OC[C@@H](CC)N[*:1])[C@@H](C)C(=O)[*:2]; X17 = CCCCCC[C@@H](O[C@H](C)CN[*:1])[C@@H](C)C(=O)[*:2]; X2 = CCCCCC[C@@H](OC[C@@H](C)N[*:1])[C@@H](C)C(=O)[*:2]; Cyclobutyl(trans-3-NH2) = N[C@H]1C[C@H](*)C1; Gly(cHept) = N[C@H](C(=O)O)C1CCCCCC1; aThr = C[C@H](O)[C@H](N)C(=O)O; NMeL = CN[C@@H](CC(C)C)C(=O)O; Chg = N[C@H](C(=O)O)C1CCCCC1; NMeNva = CCC[C@H](NC)C(=O)O; Dap = NC[C@H](N)C(=O)O; Propyl(3-NH2) = NCCC*; Ethyl(2-NH2) = NCC*; X15 = OC[C@@H](O)C*

System: Escherichia coli (E. coli) strain CFT073 ATCC 700928
Type: cell-based
Conditions: ATCC 700928, 22 h
Summary of the method: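 MICs were read after 22 h at 35 °C, with bacteria added to a final OD600 of 0.0005. Compounds were serially diluted 2-fold over ten concentrations from a top of 64, 4, 0.5 or 0.13 μg/mL (protocols 1–4). Medium was cation-adjusted Mueller Hinton II broth plus 0.002% Tween-80, following CLSI M07-A8.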

Row | SMILES | MIC
1 | CCCCCC[C@H]1OC[C@@H](C)NC(=O)[C@H](COCCCN)NC(=O)[C@H](CO)NC(=O)[C@H](C2CCCCC2)NC(=O)[C@H](CCC)N(C)C(=O)[C@@H]1C [Example 130, (3R,6S,9S,12S,15S,18R,19R)-6-(3-aminopropoxymethyl)-12-cyclohexyl-19-hexyl-9-(hydroxymethyl)-3,16,18-trimethyl-15-propyl-1-oxa-4,7,10,13,16-pentazacyclononadecane-5,8,11,14,17-pentone] (cyclo([Chg]SS(Propyl(3-NH2))[X2][NMeNva])) | 44 µM (≈ 31.3 µg/mL)
2 | CCCCCC[C@H]1OC[C@@H](C)NC(=O)[C@H](COCCCN)NC(=O)[C@H](CN)NC(=O)[C@H](C2CCCCC2)NC(=O)[C@H](CC(C)C)N(C)C(=O)[C@@H]1C [Example 131, (3R,6S,9S,12S,15S,18R,19R)-9-(aminomethyl)-6-(3-aminopropoxymethyl)-12-cyclohexyl-19-hexyl-15-isobutyl-3,16,18-trimethyl-1-oxa-4,7,10,13,16-pentazacyclononadecane-5,8,11,14,17-pentone] (cyclo([Chg][Dap]S(Propyl(3-NH2))[X2][NMeL])) | 11 µM (≈ 7.96 µg/mL)
3 | CCCCCC[C@H]1OC(=O)CNC(=O)[C@H]([C@H](C)O)NC(=O)[C@H](CO)NC(=O)[C@H](C2CCCCC2)NC(=O)[C@H](CCC)N(C)C(=O)[C@@H]1C [Example 132, (6S,9S,12S,15S,18R,19R)-12-cyclohexyl-19-hexyl-9-(hydroxymethyl)-16,18-dimethyl-15-propyl-6-[(1S)-1-hydroxyethyl]-1-oxa-4,7,10,13,16-pentazacyclononadecane-2,5,8,11,14,17-hexone] | 6.1 µM (≈ 4.07 µg/mL)
4 | CCCCCC[C@H]1OC(=O)CNC(=O)[C@H](COCCCN)NC(=O)[C@H](CN)NC(=O)[C@H](C2CCCCCC2)NC(=O)[C@H](CCC)N(C)C(=O)[C@@H]1C [Example 133, (6S,9S,12S,15S,18R,19R)-9-(aminomethyl)-6-(3-aminopropoxymethyl)-12-cycloheptyl-19-hexyl-16,18-dimethyl-15-propyl-1-oxa-4,7,10,13,16-pentazacyclononadecane-2,5,8,11,14,17-hexone] | 3.1 µM (≈ 2.24 µg/mL)
5 | CCC[C@H]1C(=O)N[C@@H](C2CCCCCC2)C(=O)N[C@@H](CN)C(=O)N[C@@H]([C@H](C)O)C(=O)NCC(=O)O[C@H](CC2CC3CCC2C3)[C@@H](C)C(=O)N1C (stereo partly drawn) [Example 134, (6S,9S,12S,15S,18R,19R)-9-(aminomethyl)-12-cycloheptyl-16,18-dimethyl-19-(norbornan-2-ylmethyl)-15-propyl-6-[(1S)-1-hydroxyethyl]-1-oxa-4,7,10,13,16-pentazacyclononadecane-2,5,8,11,14,17-hexone] | 0.78 µM (≈ 0.55 µg/mL)
6 | CCCCCC[C@H]1OC(=O)CNC(=O)[C@H]([C@H](C)O)NC(=O)[C@H](CN)NC(=O)[C@H](C2CCCCC2)NC(=O)[C@H](CC(C)C)N(C)C(=O)[C@@H]1CC1CCCCC1 [Example 135, (6S,9S,12S,15S,18R,19R)-9-(aminomethyl)-12-cyclohexyl-18-(cyclohexylmethyl)-19-hexyl-15-isobutyl-16-methyl-6-[(1S)-1-hydroxyethyl]-1-oxa-4,7,10,13,16-pentazacyclononadecane-2,5,8,11,14,17-hexone] | 3.7 µM (≈ 2.82 µg/mL)
7 | CCCCCC[C@H]1OC[C@@H](C)NC(=O)[C@H](COC[C@H](O)CO)NC(=O)[C@H](CN)NC(=O)[C@H](C2CCCCC2)NC(=O)[C@H](CC(C)C)N(C)C(=O)[C@@H]1C [Example 136, (3R,6S,9S,12S,15S,18R,19R)-9-(aminomethyl)-12-cyclohexyl-19-hexyl-15-isobutyl-3,16,18-trimethyl-6-[[(2R)-2,3-dihydroxypropoxy]methyl]-1-oxa-4,7,10,13,16-pentazacyclononadecane-5,8,11,14,17-pentone] (cyclo([Chg][Dap]S(X15)[X2][NMeL])) | 8.8 µM (≈ 6.52 µg/mL)
8 | CCC[C@H]1C(=O)N[C@@H](C2CCCCCC2)C(=O)N[C@@H](CN)C(=O)N[C@@H](CO[C@H]2C[C@H](N)C2)C(=O)NCC(=O)O[C@H](CCC2CC3CCC2C3)[C@@H](C)C(=O)N1C (stereo partly drawn) [Example 137, (6S,9S,12S,15S,18R,19R)-6-[(3-aminocyclobutoxy)methyl]-9-(aminomethyl)-12-cycloheptyl-16,18-dimethyl-19-(2-norbornan-2-ylethyl)-15-propyl-1-oxa-4,7,10,13,16-pentazacyclononadecane-2,5,8,11,14,17-hexone] | 0.78 µM (≈ 0.604 µg/mL)
9 | CCCCCC[C@H]1OC[C@@H](C)NC(=O)[C@H](COCCN)NC(=O)[C@H](CN)NC(=O)[C@H](C2CCCCC2)NC(=O)[C@H](CC(C)C)N(C)C(=O)[C@@H]1C [Example 138, (3R,6S,9S,12S,15S,18R,19R)-6-(2-aminoethoxymethyl)-9-(aminomethyl)-12-cyclohexyl-19-hexyl-15-isobutx1-3,16,18-trimethyl-1-oxa-4,7,10,13,16-pentazacyclononadecane-5,8,11,14,17-pentone] (cyclo([Chg][Dap]S(Ethyl(2-NH2))[X2][NMeL])) | 12 µM (≈ 8.52 µg/mL)
10 | CCCCCC[C@H]1OC(=O)CNC(=O)[C@H](CNC(=O)CN)NC(=O)[C@H](CN)NC(=O)[C@H](C2CCCCC2)NC(=O)[C@H](CC(C)C)N(C)C(=O)[C@@H]1C [Example 139, 2-amino-N-[[(6S,9S,12S,15S,18R,19R)-9-(aminomethyl)-12-cyclohexyl-19-hexyl-15-isobutyl-16,18-dimethyl-2,5,8,11,14,17-hexaoxo-1-oxa-4,7,10,13,16-pentazacyclononadec-6-yl]methyl]acetamide] | 18 µM (≈ 13 µg/mL)
11 | CCCCCC[C@H]1O[C@H](C)CNC(=O)[C@H]([C@H](C)O)NC(=O)[C@H](CN)NC(=O)[C@H](C2CCCCC2)NC(=O)[C@H](CC(C)C)N(C)C(=O)[C@@H]1C [Example 140, (2R,6S,9S,12S,15S,18R,19R)-9-(aminomethyl)-12-cyclohexyl-19-hexyl-15-isobutyl-2,16,18-trimethyl-6-[(1S)-1-hydroxyethyl]-1-oxa-4,7,10,13,16-pentazacyclononadecane-5,8,11,14,17-pentone] (cyclo([Chg][Dap][aThr][X17][NMeL])) | 35 µM (≈ 23.8 µg/mL)
12 | CCC[C@H]1C(=O)N[C@@H](C2CCCCCC2)C(=O)N[C@@H](CN)C(=O)N[C@@H](CO[C@H]2C[C@H](N)C2)C(=O)NCC(=O)O[C@H](CC2CC3CCC2C3)[C@@H](C)C(=O)N1C (stereo partly drawn) [Example 141, (6S,9S,12S,15S,18R,19R)-6-[(3-aminocyclobutoxy)methyl]-9-(aminomethyl)-12-cycloheptyl-16,18-dimethyl-19-(norbornan-2-ylmethyl)-15-propyl-1-oxa-4,7,10,13,16-pentazacyclononadecane-2,5,8,11,14,17-hexone] | 2.2 µM (≈ 1.67 µg/mL)
13 | CCCCCC[C@H]1OC(=O)CNC(=O)[C@H]([C@H](C)O)NC(=O)[C@H](CN)NC(=O)[C@H](C2Cc3ccccc3C2)NC(=O)[C@H](CCC)N(C)C(=O)[C@@H]1C [Example 142, (6S,9S,12S,15S,18R,19R)-9-(aminomethyl)-19-hexyl-12-indan-2-yl-16,18-dimethyl-15-propyl-6-[(1S)-1-hydroxyethyl]-1-oxa-4,7,10,13,16-pentazacyclononadecane-2,5,8,11,14,17-hexone] | 8.8 µM (≈ 6.17 µg/mL)
14 | CCCCCC[C@H]1OC(=O)CNC(=O)[C@H](CNC(=O)CN(C)C)NC(=O)[C@H](CN)NC(=O)[C@H](C2CCCCC2)NC(=O)[C@H](CC(C)C)N(C)C(=O)[C@@H]1C [Example 143, 2-(dimethylamino)-N-[[(6S,9S,12S,15S,18R,19R)-9-(aminomethyl)-12-cyclohexyl-19-hexyl-15-isobutyl-16,18-dimethyl-2,5,8,11,14,17-hexaoxo-1-oxa-4,7,10,13,16-pentazacyclononadec-6-yl]methyl]acetamide] | 25 µM (≈ 18.8 µg/mL)
15 | CCCCCC[C@H]1OC[C@@H](CC)NC(=O)[C@H]([C@H](C)O)NC(=O)[C@H](CN)NC(=O)[C@H](C2CCCCC2)NC(=O)[C@H](CC(C)C)N(C)C(=O)[C@@H]1C [Example 144, (3R,6S,9S,12S,15S,18R,19R)-9-(aminomethyl)-12-cyclohexyl-3-ethyl-19-hexyl-15-isobutyl-16,18-dimethyl-6-[(1S)-1-hydroxyethyl]-1-oxa-4,7,10,13,16-pentazacyclononadecane-5,8,11,14,17-pentone] (cyclo([Chg][Dap][aThr][X6][NMeL])) | 2.2 µM (≈ 1.53 µg/mL)
16 | CCCCCC[C@H]1OC(=O)CNC(=O)[C@H](CNC(=O)CCN)NC(=O)[C@H](CN)NC(=O)[C@H](C2CCCCC2)NC(=O)[C@H](CC(C)C)N(C)C(=O)[C@@H]1C [Example 145, 3-amino-N-[[(6S,9S,12S,15S,18R,19R)-9-(aminomethyl)-12-cyclohexyl-19-hexyl-15-isobutyl-16,18-dimethyl-2,5,8,11,14,17-hexaoxo-1-oxa-4,7,10,13,16-pentazacyclononadec-6-yl]methyl]propanamide] | 12 µM (≈ 8.84 µg/mL)
17 | CCCCCC[C@H]1OC[C@@H](C)NC(=O)[C@H](CO[C@H]2C[C@H](N)C2)NC(=O)[C@H](CN)NC(=O)[C@H](C2CCCCCC2)NC(=O)[C@H](CCC)N(C)C(=O)[C@@H]1C [Example 146, (3R,6S,9S,12S,15S,18R,19R)-6-[(3-aminocyclobutoxy)methyl]-9-(aminomethyl)-12-cycloheptyl-19-hexyl-3,16,18-trimethyl-15-propyl-1-oxa-4,7,10,13,16-pentazacyclononadecane-5,8,11,14,17-pentone] (cyclo([Dap]S(Cyclobutyl(trans-3-NH2))[X2][NMeNva][Gly(cHept)])) | 6.3 µM (≈ 4.64 µg/mL)
18 | CCCC[C@H]1OC[C@@H](C)NC(=O)[C@H]([C@H](C)O)NC(=O)[C@H](CN)NC(=O)[C@H](C2CCCCC2)NC(=O)[C@H](CCC)N(C)C(=O)[C@@H]1CC1CC1 [Example 147, (3R,6S,9S,12S,15S,18R,19R)-9-(Aminomethyl)-19-butyl-12-cyclohexyl-18-(cyclopropylmethyl)-6-((S)-1-hydroxyethyl)-3,16-dimethyl-15-propyl-1-oxa-4,7,10,13,16-pentaazacyclononadecane-5,8,11,14,17-pentaone] (cyclo([Chg][Dap][aThr][X19][NMeNva])) | 12 µM (≈ 8.15 µg/mL)
